Among the data in ChEMBL document CHEMBL1240332, “Mechanisms, biology and inhibitors of deubiquitinating enzymes” (Nat Chem Biol, 2007) are Ki and IC50 values, retold here.

Assay [1] addresses T1, Ubiquitin carboxyl-terminal hydrolase isozyme L3 (Homo sapiens, UniProt P15374).
T1 sequence (P15374 whole entry): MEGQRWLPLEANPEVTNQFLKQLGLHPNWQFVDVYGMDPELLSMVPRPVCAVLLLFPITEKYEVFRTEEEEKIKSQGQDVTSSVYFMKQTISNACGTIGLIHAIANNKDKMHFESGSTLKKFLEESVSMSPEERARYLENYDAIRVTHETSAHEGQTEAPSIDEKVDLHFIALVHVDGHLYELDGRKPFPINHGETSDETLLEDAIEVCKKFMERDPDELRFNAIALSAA
In words: Inhibition of UCHL3.

Assay [2] has as its target T2, Protein-glutamine gamma-glutamyltransferase (Homo sapiens, UniProt P21980).
T2 sequence (P21980 whole entry): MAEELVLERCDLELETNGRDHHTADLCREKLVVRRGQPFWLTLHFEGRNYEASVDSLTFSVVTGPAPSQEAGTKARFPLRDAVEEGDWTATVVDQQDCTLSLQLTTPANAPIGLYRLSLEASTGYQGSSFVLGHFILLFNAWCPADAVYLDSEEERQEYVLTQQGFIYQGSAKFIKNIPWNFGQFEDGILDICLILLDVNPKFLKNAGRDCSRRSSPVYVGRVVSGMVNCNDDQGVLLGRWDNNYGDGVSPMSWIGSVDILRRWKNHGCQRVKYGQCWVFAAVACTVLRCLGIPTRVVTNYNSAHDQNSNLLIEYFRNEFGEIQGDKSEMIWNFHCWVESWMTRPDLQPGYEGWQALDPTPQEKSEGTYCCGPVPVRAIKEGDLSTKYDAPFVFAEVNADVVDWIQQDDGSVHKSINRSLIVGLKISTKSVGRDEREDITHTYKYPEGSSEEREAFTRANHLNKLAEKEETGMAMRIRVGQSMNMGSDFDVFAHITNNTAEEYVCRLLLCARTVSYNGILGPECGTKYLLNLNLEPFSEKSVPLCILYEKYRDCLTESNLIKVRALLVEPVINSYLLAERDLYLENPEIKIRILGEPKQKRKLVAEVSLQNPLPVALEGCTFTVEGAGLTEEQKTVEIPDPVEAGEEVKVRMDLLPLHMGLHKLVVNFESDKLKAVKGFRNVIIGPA
In words: Inhibition of tissue transglutaminase.

The target of assay [3] is T3, Caspase-3 (Homo sapiens, UniProt P42574).
T3 sequence (P42574 whole entry): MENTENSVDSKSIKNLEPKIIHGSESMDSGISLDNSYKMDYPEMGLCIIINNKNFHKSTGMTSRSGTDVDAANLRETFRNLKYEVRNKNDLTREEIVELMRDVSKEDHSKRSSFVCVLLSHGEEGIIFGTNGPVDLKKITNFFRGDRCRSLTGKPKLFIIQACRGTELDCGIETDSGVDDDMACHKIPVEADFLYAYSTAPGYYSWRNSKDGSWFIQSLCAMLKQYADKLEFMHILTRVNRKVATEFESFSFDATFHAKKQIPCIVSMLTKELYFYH
In words: Inhibition of caspase3.

Assay [4] has as its target T4, Ubiquitin carboxyl-terminal hydrolase 5 (Homo sapiens, UniProt P45974).
T4 sequence (P45974 whole entry): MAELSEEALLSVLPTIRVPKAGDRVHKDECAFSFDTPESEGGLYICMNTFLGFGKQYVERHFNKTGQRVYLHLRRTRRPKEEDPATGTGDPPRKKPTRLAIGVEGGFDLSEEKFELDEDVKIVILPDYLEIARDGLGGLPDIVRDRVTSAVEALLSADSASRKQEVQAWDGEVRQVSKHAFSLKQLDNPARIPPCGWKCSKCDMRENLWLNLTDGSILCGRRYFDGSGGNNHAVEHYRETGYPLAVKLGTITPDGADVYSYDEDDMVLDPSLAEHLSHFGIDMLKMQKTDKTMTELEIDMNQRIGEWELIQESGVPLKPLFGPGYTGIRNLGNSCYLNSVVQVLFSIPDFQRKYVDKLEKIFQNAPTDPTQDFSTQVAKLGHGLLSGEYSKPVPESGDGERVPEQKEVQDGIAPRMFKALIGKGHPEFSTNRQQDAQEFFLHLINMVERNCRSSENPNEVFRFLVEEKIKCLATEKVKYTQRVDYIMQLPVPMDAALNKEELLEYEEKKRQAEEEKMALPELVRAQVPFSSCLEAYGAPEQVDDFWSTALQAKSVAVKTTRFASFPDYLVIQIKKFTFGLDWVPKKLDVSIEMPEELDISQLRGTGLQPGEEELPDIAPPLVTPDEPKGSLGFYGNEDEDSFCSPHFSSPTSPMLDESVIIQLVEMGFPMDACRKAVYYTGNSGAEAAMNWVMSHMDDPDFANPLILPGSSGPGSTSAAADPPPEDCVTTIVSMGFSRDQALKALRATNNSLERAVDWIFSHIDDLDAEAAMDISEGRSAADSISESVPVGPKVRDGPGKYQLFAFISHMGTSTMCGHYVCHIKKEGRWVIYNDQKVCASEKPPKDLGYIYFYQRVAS
In words: Inhibition of isopeptidase T.

The target of assay [5] is T5, Ubiquitin carboxyl-terminal hydrolase isozyme L1 (Homo sapiens, UniProt P09936).
T5 sequence (P09936 whole entry): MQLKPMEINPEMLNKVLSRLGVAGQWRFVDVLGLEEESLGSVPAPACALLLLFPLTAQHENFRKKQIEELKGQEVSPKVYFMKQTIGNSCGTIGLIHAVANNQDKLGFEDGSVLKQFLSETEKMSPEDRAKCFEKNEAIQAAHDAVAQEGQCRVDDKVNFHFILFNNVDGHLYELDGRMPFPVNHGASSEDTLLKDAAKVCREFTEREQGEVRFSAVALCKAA
In words: Inhibition of UCHL1 in human H1299 cells. It is filed as cell-based.

In assay [6] the target is T1, Ubiquitin carboxyl-terminal hydrolase isozyme L3. In words: Inhibition of UCHL3 in human H1299 cells. It is filed as cell-based.

A word on the Ki: it is the dissociation constant of the complex between target and ligand, obtained from inhibition or displacement. In general, IC50 refers to the concentration that inhibits the measured activity by half. Read a high IC50 as a need for much substance.

As for `Nc1c(C(=O)c2ccccc2)sc2[nH]c(=O)c(C(=O)O)cc12`, the inhibition constant Ki in assay [1], in assay [2], in assay [3] and in assay [4] was above 100 µM throughout.

On to `O=C1CC(=O)c2c(Cl)c(Cl)c(Cl)c(Cl)c21`, for which the 50% inhibitory concentration (IC50) in assay [5] came out at 75 µM; in assay [6], 0.6 µM.

For the compound `CC(=O)O/N=C1/C(=O)N(Cc2ccc(Cl)c(Cl)c2)c2ccc(Br)cc21`, the IC50 in assay [5] worked out at 0.81 µM; in assay [6], 17 µM.

Turning to `CC(=O)O/N=C1/C(=O)N(Cc2cc(Cl)ccc2Cl)c2ccc(Br)cc21`, the IC50 in assay [5] was found to be 0.88 µM; in assay [6], 25 µM.

Take `CC(=O)O/N=C1/C(=O)N(Cc2ccc(Cl)c(Cl)c2)c2ccc(I)cc21`: the figures for the IC50 in assay [5] and in assay [6] were 0.94 µM and 23 µM, respectively.

Take `CCCCc1ccc(-c2n[nH]c(=S)n2-c2ccc(C(C)C)cc2)cc1`: the concentration for half-maximal inhibition (IC50) in assay [5] came to 126 µM; in assay [6], 47 µM.

Take `CC1=CC(=O)c2ccccc2C1=O` [MENADIONE]: the results for the IC50 in assay [5] and in assay [6] were 290 µM and 71 µM, respectively.
